Laboratory results published in patent publication US20040043959A1, “Combination therapies for treating methylthioadenosine phosphorylase deficient cells” (priority 2002, published 2004).

Target: T1, Human MTAP (Homo sapiens, UniProt Q13126)
T1 construct: six-histidine tag (His6) (N); made in house; host or cells: E. coli BL21 DE3
T1 sequence (Q13126 1-283): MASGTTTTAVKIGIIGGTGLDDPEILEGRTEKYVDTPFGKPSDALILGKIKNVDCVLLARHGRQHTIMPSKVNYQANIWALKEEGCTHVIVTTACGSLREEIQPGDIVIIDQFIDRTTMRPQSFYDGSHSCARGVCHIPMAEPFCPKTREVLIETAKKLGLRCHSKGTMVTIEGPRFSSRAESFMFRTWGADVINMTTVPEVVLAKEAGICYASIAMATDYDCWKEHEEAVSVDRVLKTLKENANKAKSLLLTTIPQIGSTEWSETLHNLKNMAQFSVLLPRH
Assay: MTAP substrate assay, coupled spectrophotometric (adenine, xanthine oxidase)
Assay type: biochemical
Conditions: 2 nM MTAP; for activity at 50 µM: 10 min, compound 50 uM, relative to MTA at 50 uM, read-out: MT-A—50: initial velocity as a percentage of the initial velocity with MTA as substrate; for MT-A—10: initial velocity as a percentage of the initial velocity with MTA as substrate: compound 10 uM, relative to MTA at 10 uM
In short: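 Detection was xanthine oxidase-coupled (0.8 units/ml), reading adenine-derived absorbance at 305 nm over 10 min in potassium phosphate/DTT buffer at 37° C, with N-His6 enzyme purified from E. coli.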

Row | activity at 50 µM [%] | MT-A—10: initial velocity as a percentage of the initial velocity with MTA as substrate [%] | SMILES
1 | 6 | 5 | Nc1ncnc2c1ncn2[C@@H]1O[C@H](CSc2cc(Cl)ccc2Cl)[C@@H](O)[C@H]1O [2(G)(97), (2R, 3R, 4S, 5S)-2-(6-amino-9H-purin-9-yl)-5-{[(2,5-dichlorophenyl)-thio]methyl}tetrahydro-furan-3,4-diol]
2 | 18 | 20 | Nc1ncnc2c1ncn2[C@@H]1O[C@H](CSc2cccc(Cl)c2)[C@@H](O)[C@H]1O [2(G)(98), (2R, 3R, 4S, 5S)-2-(6-amino-9H-purin-9-yl)-5-{[(3-chlorophenyl)thio]-methyl}tetrahydrofuran-3,4-diol]
3 | 18 | 17 | Nc1ncnc2c1ncn2[C@@H]1O[C@H](CSc2cccc(C(F)(F)F)c2)[C@@H](O)[C@H]1O [2(G)(99), (2R, 3R,4S, 5S)-2-(6-amino-9H-purin-9-yl)-5-({[3-(trifluoromethyl)-phenyl]thio}methyl)-tetrahydrofuran-3,4-diol]
4 | 10 | 7 | Cc1nccnc1SC[C@H]1O[C@@H](n2cnc3c(N)ncnc32)[C@H](O)[C@@H]1O [2(G)(100), (2R, 3R, 4S, 5S)-2-(6-amino-9H-purin-9-yl)-5-{[(3-methylpyrazin-2-yl)thio]methyl}tetrahydro-furan-3,4-diol]
5 | 38 | 36 | Nc1ncnc2c1ncn2[C@@H]1O[C@H](CSc2cccc(O)c2)[C@@H](O)[C@H]1O [2(G)(101), (2R, 3R, 4S, 5S)-2-(6-amino-9H-purin-9-yl)-5-{[(3-hydroxyphenyl)-thio]methyl}tetrahydro-furan-3,4-diol]
6 | 3 | 2 | Nc1ncnc2c1ncn2[C@@H]1O[C@H](CSc2c(Cl)cccc2Cl)[C@@H](O)[C@H]1O [2(G)(102), (2R, 3R, 4S, 5S)-2-(6-amino-9H-purin-9-yl)-5-{[(2,6-dichIorophenyl)-thio]methyl}tetrahydro-furan-3,4-diol]
7 | 4 | 3 | Nc1ncnc2c1ncn2[C@@H]1O[C@H](CSc2ccc(C(F)(F)F)cc2[N+](=O)[O-])[C@@H](O)[C@H]1O [2(G)(103), (2R, 3R, 4S, 5S)-2-(6-amino-9H-purin-9-yl)-5-({[2-nitro-4-(trifluoromethyl)phenyl]thio}methyl)tetrahydro-furan-3,4-diol]
8 | 15 | 5 | Nc1ncnc2c1ncn2[C@@H]1O[C@H](CSCC(=O)Nc2ccccc2)[C@@H](O)[C@H]1O [2(G)(104), 2-({[(2S, 3S, 4R, 5R)-5-(6-amino-9H-purin-9-yl)-3,4-dihydroxytetrahydro-furan-2-yl]methyl}thio)-N-phenylacetamide]
9 | 21 | 17 | Nc1ncnc2c1ncn2[C@@H]1O[C@H](CSc2ccc([N+](=O)[O-])cn2)[C@@H](O)[C@H]1O [2(G)(105), (2R, 3R, 4S, 5S)-2-(6-amino-9H-purin-9-yl)-5-{[(5-nitropyridin-2-yl)thio]methyl}tetrahydro-furan-3,4-diol]
10 | 3 | 6 | Nc1ncnc2c1ncn2[C@@H]1O[C@H](CSc2c[nH]c3ccccc23)[C@@H](O)[C@H]1O [2(G)(106), (2R, 3R, 4S, 5S)-2-(6-amino-9H-purin-9-yl)-5-[(1H-indol-3-ylthio)-methyl]-tetrahydrofuran-3,4-diol]
11 | 2 | 4 | COC(=O)c1ccccc1SC[C@H]1O[C@@H](n2cnc3c(N)ncnc32)[C@H](O)[C@@H]1O [2(G)(107), methyl 2-({[(2S, 3S, 4R, 5R)-5-(6-amino-9H-purin-9-yl)-3,4-dihydroxy-tetrahydrofuran-2-yl]-methyl}thio)-benzoate]
12 | 19 | 8 | Nc1ncnc2c1ncn2[C@@H]1O[C@H](CSc2ccc(/C=C/C(=O)O)cc2)[C@@H](O)[C@H]1O [2(G)(108), (2E)-3-[4-({[(2S, 3S, 4R, 5R)-5-(6-amino-9H-purin-9-yl)-3,4-dihydroxytetra-hydrofuran-2-yl]methyl}thio)phenyl]acrylic acid]
13 | 8 | 8 | COC(=O)c1cccc(SC[C@H]2O[C@@H](n3cnc4c(N)ncnc43)[C@H](O)[C@@H]2O)c1 [2(G)(109), methyl 3-({[(2S, 3S, 4R, 5R)-5-(6-amino-9H-purin-9-yl)-1,3,4-dihydroxytetra-hydrofuran-2-yl]methyl}thio)benzoate]
14 | 9 | 15 | COC(=O)/C=C/c1ccc(SC[C@H]2O[C@@H](n3cnc4c(N)ncnc43)[C@H](O)[C@@H]2O)cc1 [2(G)(110), methyl (2E)-3-[4-({[(2S, 3S, 4R, 5R)-5-(6-amino-9H-purin-9-yl)-dihydroxy-tetrahydrofuran-2-yl]-methyl}thio)phenyl]-acrylate]
15 | 4 | 8 | COc1cccc(-c2nnc(SC[C@H]3O[C@@H](n4cnc5c(N)ncnc54)[C@H](O)[C@@H]3O)n2C)c1 [2(G)(111), (2R, 3R, 4S, 5S)-2-(6-amino-9H-purin-9-yl)-5-({[5-(3-methoxyphenyl)-4-methyl-4H-1,2,4-triazol-3-yl]thio}-methyl)tetrahydrofuran-3,4-diol]
16 | 10 | 17 | Nc1ncnc2c1ncn2[C@@H]1O[C@H](CSc2nccc(-c3ccco3)n2)[C@@H](O)[C@H]1O [2(G)(112), (2R, 3R, 4S, 5S)-2-(6-amino-9H-purin-9-yl)-5-({[4-(2-furyl)pyrimidin-2-yl]thio}methyl)tetrahydro-furan-3,4-diol]
17 | 43 | 48 | Cn1c(SC[C@H]2O[C@@H](n3cnc4c(N)ncnc43)[C@H](O)[C@@H]2O)nc2ccccc21 [2(G)(113), (2R, 3R, 4S, 5S)-2-(6-amino-9H-purin-9-yl)-5-{[(1-methyl-1H-benzimidazol-2-yl)thio]-methyl}tetrahydro-furan-3,4-diol]
18 | 11 | 29 | CC(=O)NCCSC[C@H]1O[C@@H](n2cnc3c(N)ncnc32)[C@H](O)[C@@H]1O [2(G)(114), N-[2-({[(2S, 3S, 4R, 5R)-5-(6-amino-9H-purin-9-yl)-3,4-dihydroxytetra-hydrofuran-2-yl]methyl}thio)ethyl]acetamide]
19 | 15 | 12 | CSc1ccc(SC[C@H]2O[C@@H](n3cnc4c(N)ncnc43)[C@H](O)[C@@H]2O)cc1 [2(G)(115), (2R, 3R, 4S, 5S)-2-(6-amino-9H-purin-9-yl)-5-({[4-(methylthio)phenyl]-thio}methyl)tetrahydro-furan-3,4-diol]
